We go through 46 compounds from US9981956B2, “Small molecule inhibitors of fibrosis” (THE CALIFORNIA INSTITUTE FOR BIOMEDICAL RESEARCH, priority 2013, dated 2018).

The assay concerns fibroblast to myofibroblast transdifferentiation (primary human lung fibroblasts and primary rodent HSCs). Briefly: High content imaging and western based assay of fibroblast to myofibroblast transdifferentiation (α-SMA). Type of assay: cell-based. The following applies: graded, TGF-β induced fibroblast to myofibroblast transdifferentiation. From the text:
A high content imaging assay, based on α-SMA staining and cell morphological changes associated with fibroblast to myofibroblast transdifferentiation, was established using primary human lung fibroblasts and primary rodent HSCs. Conditions, involving serum starvation and subsequent TGF-β treatment, were identified that facilitate robust in vitro transdifferentiation in a miniaturized (384 well plate) format that is amenable to high throughput small molecule screening. A selective ALK-5 TGF-β1 receptor inhibitor (SB-431542) was used as a positive control. […] This assay was used to identify a hit compound (itraconazole) and was used to evaluate focused panels of itraconazole analogues generated from medicinal chemistry efforts.
The activity of Itraconazole and its analogues was confirmed by analyzing changes in gene expression of multiple genes associated with fibroblast to myofibroblast transdifferentiation using biochemical methods (i.e., Western blot and RT-PCR). These 4-day assays were used to evaluate sets of 6 compounds at a time in 4-point dose response fashion.
After 24 hour incubation, cells were treated with the indicated doses of itraconazole for 48 hours in the presence of 10 ng/mL of TGF-β1 in hepatic stellate medium. Following fixation and staining with an anti smooth muscle actin antibody, cell morphology was analyzed with a Cellomics cell insight imaging reader (FIG. 1 for representative images). Cells were analyzed for mean cellular area of a-SMA staining (FIG. 5a) or mean fluorescence intensity of SMA staining (FIG. 5b).
After 24 incubation, medium was changed to assay medium containing TGF-β1 (10 ng/mL) and simultaneously treated with itraconazole (10 μM), SB431542 (10 μM) or vehicle control (FIG. 6).

Compound `CCC(C)n1ncn(-c2ccc(N3CCN(c4ccc(OC[C@H]5CO[C@@](Cn6cncn6)(c6ccc(F)cc6F)O5)cc4)CC3)cc2)c1=O` (mixture of isomers) [Compound 7] came in with an EC50 of 5 to 30 µM. For `CCC(C)n1ncn(-c2ccc(N3CCN(c4ccc(OC[C@@H]5CO[C@](Cn6nc7ccccc7n6)(c6ccc(Cl)cc6Cl)O5)cc4)CC3)cc2)c1=O` (mixture of isomers) [Compound 17], the EC50 was 5 to 30 µM. The figure for `CCC(C)n1ncn(-c2ccc(N3CCN(c4ccc(OC[C@@H]5CO[C@](Cn6nccn6)(c6ccc(Cl)cc6Cl)O5)cc4)CC3)cc2)c1=O` (mixture of isomers) [Compound 18] is 5 to 30 µM.

Take `CC[C@@H]([C@H](C)O)n1ncn(-c2ccc(N3CCN(c4ccc(OC[C@@H]5CO[C@@](Cn6cncn6)(c6ccc(F)cc6F)C5)cc4)CC3)cc2)c1=O` (racemic) [POS, reference compound]: the EC50 is 5 to 30 µM. The figure for `CCC(C)n1cnn(-c2ccc(N3CCN(c4ccc(OC[C@@H]5CO[C@@](Cn6nccn6)(c6ccc(F)cc6F)O5)cc4)CC3)cc2)c1=O` (stereo partly shown) [Compound 3] is 5 to 30 µM.

Take `CCC(C)n1cnn(-c2ccc(N3CCN(c4ccc(OC[C@@H]5CO[C@@](Cn6ccc(C)n6)(c6ccc(F)cc6F)O5)cc4)CC3)cc2)c1=O` (stereo partly shown) [Compound 4]: the EC50 is 5 to 30 µM. Under `CCC(C)n1cnn(-c2ccc(N3CCN(c4ccc(OC[C@@H]5CO[C@@](Cn6cnc(C)n6)(c6ccc(F)cc6F)O5)cc4)CC3)cc2)c1=O` (stereo partly shown) [Compound 5] stands 5 to 30 µM; under `CCC(C)n1ncn(-c2ccc(N3CCN(c4ccc(OC[C@@H]5CO[C@@](Cn6cncn6)(c6ccc(F)cc6F)O5)cc4)CC3)cc2)c1=O` (stereo partly shown) [Compound 6], 0.5 to 5 µM; under `CCC(C)n1cnn(-c2ccc(N3CCN(c4ccc(OC[C@@H]5CO[C@@](Cn6nnc7ccccc76)(c6ccc(F)cc6F)O5)cc4)CC3)cc2)c1=O` (stereo partly shown) [Compound 8], 0.5 to 5 µM. The figure for `CCC(C)n1ncn(-c2ccc(N3CCN(c4ccc(OC[C@@H]5CO[C@@](Cn6cnc(Br)n6)(c6ccc(F)cc6F)O5)cc4)CC3)cc2)c1=O` (stereo partly shown) [Compound 9] is 5 to 30 µM; for `CCC(C)n1ncn(-c2ccc(N3CCN(c4ccc(OC[C@@H]5CO[C@@](Cn6cnc(C(F)(F)F)n6)(c6ccc(F)cc6F)O5)cc4)CC3)cc2)c1=O` (stereo partly shown) [Compound 10] it is 5 to 30 µM; for `CCC(C)n1ncn(-c2ccc(N3CCN(c4ccc(OC[C@@H]5CO[C@@](Cn6nc(Br)nc6Br)(c6ccc(F)cc6F)O5)cc4)CC3)cc2)c1=O` (stereo partly shown) [Compound 11] it is 5 to 30 µM. The figure for `CCC(C)n1cnn(-c2ccc(N3CCN(c4ccc(OC[C@@H]5CO[C@@](Cn6nc7ccccc7n6)(c6ccc(F)cc6F)O5)cc4)CC3)cc2)c1=O` (stereo partly shown) [Compound 12] is 5 to 30 µM; for `CC(C)n1ncn(-c2ccc(N3CCN(c4ccc(OC[C@@H]5CO[C@@](Cn6cncn6)(c6ccc(F)cc6F)O5)cc4)CC3)cc2)c1=O` [Compound 13] it is 5 to 30 µM; for `CC(C)Cn1ncn(-c2ccc(N3CCN(c4ccc(OC[C@@H]5CO[C@@](Cn6cncn6)(c6ccc(F)cc6F)O5)cc4)CC3)cc2)c1=O` [Compound 14] it is 5 to 30 µM.

Turning to `CCC(C)n1cnn(-c2ccc(N3CCN(c4ccc(OC[C@@H]5CO[C@@](Cn6nc7ccccc7n6)(c6ccc(Cl)cc6Cl)O5)cc4)CC3)cc2)c1=O` (stereo partly shown) [Compound 16], the EC50 was 5 to 30 µM. Under `CCC(C)n1ncn(-c2ccc(N3CCN(c4ccc(OC[C@@H]5CO[C@@](Cn6cnc7ccccc76)(c6ccc(Cl)cc6Cl)O5)cc4)CC3)cc2)c1=O` (stereo partly shown) [Compound 20] stands 0.5 to 5 µM; under `CCC(C)n1ncn(-c2ccc(N3CCN(c4ccc(OC[C@@H]5CO[C@@](Cn6nccn6)(c6ccc(Cl)cc6Cl)O5)cc4)CC3)cn2)c1=O` (stereo partly shown) [Compound 25], 5 to 30 µM; under `CC(O)C(C)n1ncn(-c2ccc(N3CCN(c4ccc(OC[C@@H]5CO[C@@](Cn6nccn6)(c6ccc(Cl)cc6Cl)O5)cc4)CC3)cc2)c1=O` (stereo partly shown) [Compound 28], 0.5 to 5 µM. As to `CC(O)C(C)n1ncn(-c2ccc(N3CCN(c4ccc(OC[C@@H]5CO[C@@](Cc6ccnnc6)(c6ccc(Cl)cc6Cl)O5)cc4)CC3)cc2)c1=O` (stereo partly shown) [Compound 29], the EC50 was < 0.5 µM. Under `CCC(C)n1ncn(-c2ccc(N3CCN(c4ccc(OC[C@@H]5CO[C@@](Cn6nccn6)(c6cc(Cl)cc(Cl)c6)O5)cc4)CC3)cc2)c1=O` (stereo partly shown) [Compound 31] stands 0.5 to 5 µM. Under `CCC(C)n1ncn(-c2ccc(N3CCN(c4ccc(OC[C@@H]5CO[C@@](Cn6nccn6)(c6cccc(Cl)c6)O5)cc4)CC3)cc2)c1=O` (stereo partly shown) [Compound 33] stands 0.5 to 5 µM; under `CCc1ccc([C@]2(Cn3nccn3)OC[C@@H](COc3ccc(N4CCN(c5ccc(-n6cnn(C(C)CC)c6=O)cc5)CC4)cc3)O2)cc1` (stereo partly shown) [Compound 34], 0.5 to 5 µM. For the compound `CCC(C)n1ncn(-c2ccc(N3CCN(c4ccc(OC[C@@H]5CO[C@@](Cn6nccn6)(c6ccc(Br)cc6)O5)cc4)CC3)cc2)c1=O` (stereo partly shown) [Compound 35], the EC50 is 0.5 to 5 µM.

Regarding `CCC(C)n1ncn(-c2ccc(N3CCN(c4ccc(OC[C@@H]5CO[C@@](Cn6nccn6)(c6ccc(C#N)cc6)O5)cc4)CC3)cc2)c1=O` (stereo partly shown) [Compound 37], the EC50 is 0.5 to 5 µM. `CCC(C)n1ncn(-c2ccc(N3CCN(c4ccc(OC[C@@H]5CO[C@@](Cn6nccn6)(c6ccc(C(F)(F)F)cc6)O5)cc4)CC3)cc2)c1=O` (stereo partly shown) [Compound 38] yielded a half-maximal effective concentration (EC50) of 0.5 to 5 µM. As for `CCC(C)n1ncn(-c2ccc(N3CCN(c4ccc(OC[C@@H]5CO[C@@](Cn6nccn6)(c6ccc(OC)cc6)O5)cc4)CC3)cc2)c1=O` (stereo partly shown) [Compound 39], the EC50 lay within 0.5 to 5 µM. The compound `CCC(C)n1ncn(-c2ccc(N3CCN(c4ccc(OC[C@@H]5CO[C@@](Cn6nccn6)(c6ccc(C)cc6)O5)cc4)CC3)cc2)c1=O` (stereo partly shown) [Compound 40] had an EC50 of 0.5 to 5 µM.

The compound `CCC(C)n1ncn(-c2ccc(N3CCN(c4ccc(OC[C@@H]5CO[C@@](Cn6nccn6)(c6ccccc6C(F)(F)F)O5)cc4)CC3)cc2)c1=O` (stereo partly shown) [Compound 43] gave an EC50 of 5 to 30 µM. In the case of `CCC(C)n1ncn(-c2ccc(N3CCN(c4ccc(OC[C@@H]5CO[C@@](Cn6nccn6)(c6ccc(S(C)(=O)=O)cc6)O5)cc4)CC3)cc2)c1=O` (stereo partly shown) [Compound 44], the EC50 was 5 to 30 µM. In turn, `CCC(C)n1ncn(-c2ccc(N3CCN(c4ccc(OC[C@@H]5CO[C@@](Cn6nccn6)(c6ccccc6OC)O5)cc4)CC3)cc2)c1=O` (stereo partly shown) [Compound 45] gave an EC50 of 5 to 30 µM. The figure for `CCC(C)n1ncn(-c2ccc(N3CCN(c4ccc(OC[C@@H]5CO[C@@](Cn6nccn6)(c6ccc(Cl)cc6Cl)O5)c(C)c4)CC3)cc2)c1=O` (stereo partly shown) [Compound 46] is 5 to 30 µM; for `CCC(C)n1ncn(-c2ccc(N3CCN(c4ccc(OC[C@@H]5CO[C@@](Cn6nccn6)(c6ccc(Cl)cc6Cl)O5)c(OC)c4)CC3)cc2)c1=O` (stereo partly shown) [Compound 47] it is 5 to 30 µM; for `CCC(C)n1ncn(-c2ccc(N3CCN(c4ccc(OC[C@@H]5CO[C@@](Cn6nccn6)(c6ccc(Cl)cc6Cl)O5)c(Cl)c4)CC3)cc2)c1=O` (stereo partly shown) [Compound 48] it is 0.5 to 5 µM. Under `CCC(C)n1ncn(-c2ccc(N3CCN(c4ccc(OC[C@@H]5CO[C@@](Cn6nccn6)(c6ccc(Cl)cc6Cl)O5)cc4C)CC3)cc2)c1=O` (stereo partly shown) [Compound 50] stands 0.5 to 5 µM; under `CCC(C)n1ncn(-c2ccc(N3CCN(c4ccc(OC[C@@H]5CO[C@@](Cn6nccn6)(c6ccc(Cl)cc6Cl)O5)cc4OC)CC3)cc2)c1=O` (stereo partly shown) [Compound 51], 0.5 to 5 µM.

`CCC(C)n1ncn(-c2ccc(N3CCN(c4ccc(OC[C@@H]5CO[C@@](Cn6nccn6)(c6ccc(Cl)cc6Cl)O5)cc4C#N)CC3)cc2)c1=O` (stereo partly shown) [Compound 52] had an EC50 of 0.5 to 5 µM.

In turn, `CCC(C)n1ncn(-c2ccc(N3CCN(c4ccc(OC[C@@H]5CO[C@@](Cn6nccn6)(c6ccc(Cl)cc6Cl)O5)cc4Cl)CC3)cc2)c1=O` (stereo partly shown) [Compound 53] returned an EC50 of 0.5 to 5 µM. The figure for `CCC(C)n1ncn(-c2ccc(N3CCN(c4ccc(OC[C@@H]5CO[C@@](Cn6nccn6)(c6ncccn6)O5)cc4)CC3)cc2)c1=O` (stereo partly shown) [Compound 56] is 5 to 30 µM; for `CCC(C)n1ncn(-c2ccc(N3CCN(c4ccc(OC[C@@H]5CO[C@@](Cn6nccn6)(c6cnccn6)O5)cc4)CC3)cc2)c1=O` (stereo partly shown) [Compound 57] it is 5 to 30 µM; for `CCC(C)n1ncn(-c2ccc(N3CCN(c4ccc(OC[C@@H]5CO[C@@](Cn6nccn6)(C6CCCCC6)O5)cc4)CC3)cc2)c1=O` (stereo partly shown) [Compound 58] it is 5 to 30 µM. The figure for `CCC(C)n1ncn(-c2ccc(N3CCN(c4ccc(OC[C@@H]5CO[C@@](Cn6nccn6)(c6cccc7ccccc67)O5)cc4)CC3)cc2)c1=O` (stereo partly shown) [Compound 63] is 5 to 30 µM; for `CCC(C)n1ncn(-c2ccc(N3CCN(c4ccc(OC[C@@H]5CO[C@@](Cn6nccn6)(c6ccc(-c7ccccc7)cc6)O5)cc4)CC3)cc2)c1=O` (stereo partly shown) [Compound 72] it is 5 to 30 µM. Regarding `CCC(C)n1ncn(-c2ccc(N3CCN(c4ccc(OC[C@@H]5CO[C@@](Cn6nccn6)(c6ccccn6)O5)cc4)CC3)cc2)c1=O` (stereo partly shown) [Compound 75], the EC50 lay within 5 to 30 µM.

Consider `CCC(C)n1ncn(-c2ccc(N3CCN(c4ccc(OC[C@@H]5CO[C@@](Cn6nccn6)(c6nccs6)O5)cc4)CC3)cc2)c1=O` (stereo partly shown) [Compound 78], for which the EC50 is 5 to 30 µM. Under `CCc1cc(N2CCN(c3ccc(-n4cnn(C(C)CC)c4=O)cc3)CC2)ccc1OC[C@@H]1CO[C@@](Cn2nccn2)(c2ccc(Cl)cc2Cl)O1` (stereo partly shown) [Compound 80] stands 5 to 30 µM.

A word on the EC50: it is the concentration that produces a half-maximal response. A lower EC50 goes with greater potency.
